Data reported in patent US7390806B2, “Antibiotics containing borinic acid complexes and methods of use” (Anacor Pharmaceuticals, Inc., priority 2002, dated 2008).

These compounds were tested on S. aureus ATCC 29213 (assay: MIC determination, S. aureus ATCC 29213). Details: Table 2.
Type: cell-based, Staphylococcus aureus

SMILES | MIC S. aureus ATCC 29213 [micrograms per ml]
CC1(C)O[B-](c2ccc(Cl)cc2)(c2ccc(Cl)cc2)[n+]2cccc(O)c21 [Compound 103] | 0.25
O=C(O)c1ncccc1O [Compound 117, 3-hydroxypicolinic acid] | 2
O=C(O)c1ncccc1O [Compound 114, 3-hydroxypicolinic acid] | 0.125
O=C(O)c1ncccc1O [Compound 115, 3-hydroxypicolinic acid] | 2
Cc1cc(Cl)ccc1B(OC(=O)c1ncccc1O)c1ccc(Cl)cc1C [Compound 118, bis(2-methyl-4-chlorophenyl)borinic acid 3-hydroxypicolinate ester] | 1
CC1(C)O[B-](c2cccc(Cl)c2)(c2cccc(Cl)c2)[n+]2cccc(O)c21 [Compound 102] | 0.5
Cc1ccc([B-]2(c3ccc(C)c(Cl)c3)OC(=O)c3c(OCCCC(=O)O)ccc[n+]32)cc1Cl [Compound 109] | 1
O=C(O)c1ncccc1O [Compound 112, 3-hydroxypicolinic acid] | 4
Clc1cccc(B(OCCc2c[nH]cn2)c2cccc(Cl)c2)c1 [Compound 121, Bis(3-Chlorophenyl)borinic acid 4-(hydroxyethyl)imidazole ester] | 0.125
O=C(O)c1ncccc1O [Compound 116, 3-hydroxypicolinic acid] | 2

What follows are compounds tested on S. epidermidis ATCC 12228 (assay: MIC determination, S. epidermidis ATCC 12228). Details: Table 2.
Type: cell-based, Staphylococcus epidermidis

SMILES | MIC S. epidermidis ATCC 12228 [micrograms per ml]
CC1(C)O[B-](c2ccc(Cl)cc2)(c2ccc(Cl)cc2)[n+]2cccc(O)c21 [Compound 103] | 0.5
O=C(O)c1ncccc1O [Compound 117, 3-hydroxypicolinic acid] | 1
O=C(O)c1ncccc1O [Compound 114, 3-hydroxypicolinic acid] | 8
O=C(O)c1ncccc1O [Compound 115, 3-hydroxypicolinic acid] | 2
Cc1cc(Cl)ccc1B(OC(=O)c1ncccc1O)c1ccc(Cl)cc1C [Compound 118, bis(2-methyl-4-chlorophenyl)borinic acid 3-hydroxypicolinate ester] | 0.25
CC1(C)O[B-](c2cccc(Cl)c2)(c2cccc(Cl)c2)[n+]2cccc(O)c21 [Compound 102] | 1
Cc1ccc([B-]2(c3ccc(C)c(Cl)c3)OC(=O)c3c(OCCCC(=O)O)ccc[n+]32)cc1Cl [Compound 109] | 4
O=C(O)c1ncccc1O [Compound 112, 3-hydroxypicolinic acid] | 2
Clc1cccc(B(OCCc2c[nH]cn2)c2cccc(Cl)c2)c1 [Compound 121, Bis(3-Chlorophenyl)borinic acid 4-(hydroxyethyl)imidazole ester] | 4
O=C(O)c1ncccc1O [Compound 116, 3-hydroxypicolinic acid] | 1

Each compound was assayed on S. pneumoniae ATCC 6301 (assay: MIC determination, S. pneumoniae ATCC 6301). Details: Table 2.
Type: cell-based, Streptococcus pneumoniae

SMILES | MIC S. pneumonia ATCC 6301 [micrograms per ml]
CC1(C)O[B-](c2ccc(Cl)cc2)(c2ccc(Cl)cc2)[n+]2cccc(O)c21 [Compound 103] | 0.5
O=C(O)c1ncccc1O [Compound 117, 3-hydroxypicolinic acid] | 0.5
O=C(O)c1ncccc1O [Compound 115, 3-hydroxypicolinic acid] | 1
Cc1cc(Cl)ccc1B(OC(=O)c1ncccc1O)c1ccc(Cl)cc1C [Compound 118, bis(2-methyl-4-chlorophenyl)borinic acid 3-hydroxypicolinate ester] | 0.12
CC1(C)O[B-](c2cccc(Cl)c2)(c2cccc(Cl)c2)[n+]2cccc(O)c21 [Compound 102] | 0.25
Cc1ccc([B-]2(c3ccc(C)c(Cl)c3)OC(=O)c3c(OCCCC(=O)O)ccc[n+]32)cc1Cl [Compound 109] | 4
Clc1cccc(B(OCCc2c[nH]cn2)c2cccc(Cl)c2)c1 [Compound 121, Bis(3-Chlorophenyl)borinic acid 4-(hydroxyethyl)imidazole ester] | 8
O=C(O)c1ncccc1O [Compound 116, 3-hydroxypicolinic acid] | 0.25

Each compound was assayed on E. faecalis ATCC 29212 (assay: MIC determination, E. faecalis ATCC 29212). Details: Table 2.
Type: cell-based, Enterococcus faecalis

SMILES | MIC E. faecalis ATCC 29212 [micrograms per ml]
CC1(C)O[B-](c2ccc(Cl)cc2)(c2ccc(Cl)cc2)[n+]2cccc(O)c21 [Compound 103] | 4
O=C(O)c1ncccc1O [Compound 117, 3-hydroxypicolinic acid] | 4
O=C(O)c1ncccc1O [Compound 114, 3-hydroxypicolinic acid] | 64
O=C(O)c1ncccc1O [Compound 115, 3-hydroxypicolinic acid] | 8
Cc1cc(Cl)ccc1B(OC(=O)c1ncccc1O)c1ccc(Cl)cc1C [Compound 118, bis(2-methyl-4-chlorophenyl)borinic acid 3-hydroxypicolinate ester] | 1
CC1(C)O[B-](c2cccc(Cl)c2)(c2cccc(Cl)c2)[n+]2cccc(O)c21 [Compound 102] | 64
Cc1ccc([B-]2(c3ccc(C)c(Cl)c3)OC(=O)c3c(OCCCC(=O)O)ccc[n+]32)cc1Cl [Compound 109] | 32
O=C(O)c1ncccc1O [Compound 112, 3-hydroxypicolinic acid] | 4
Clc1cccc(B(OCCc2c[nH]cn2)c2cccc(Cl)c2)c1 [Compound 121, Bis(3-Chlorophenyl)borinic acid 4-(hydroxyethyl)imidazole ester] | 32
O=C(O)c1ncccc1O [Compound 116, 3-hydroxypicolinic acid] | 4

The compounds below were run on E. faecium CT-26 (assay: MIC determination, E. faecium CT-26). Details: Table 2.
Type: cell-based, Enterococcus faecium

SMILES | MIC E. faecium CT-26 [micrograms per ml]
CC1(C)O[B-](c2ccc(Cl)cc2)(c2ccc(Cl)cc2)[n+]2cccc(O)c21 [Compound 103] | 1
O=C(O)c1ncccc1O [Compound 117, 3-hydroxypicolinic acid] | 4
O=C(O)c1ncccc1O [Compound 114, 3-hydroxypicolinic acid] | 64
O=C(O)c1ncccc1O [Compound 115, 3-hydroxypicolinic acid] | 16
Cc1cc(Cl)ccc1B(OC(=O)c1ncccc1O)c1ccc(Cl)cc1C [Compound 118, bis(2-methyl-4-chlorophenyl)borinic acid 3-hydroxypicolinate ester] | 1
CC1(C)O[B-](c2cccc(Cl)c2)(c2cccc(Cl)c2)[n+]2cccc(O)c21 [Compound 102] | 2
Cc1ccc([B-]2(c3ccc(C)c(Cl)c3)OC(=O)c3c(OCCCC(=O)O)ccc[n+]32)cc1Cl [Compound 109] | 16
O=C(O)c1ncccc1O [Compound 112, 3-hydroxypicolinic acid] | 8
Clc1cccc(B(OCCc2c[nH]cn2)c2cccc(Cl)c2)c1 [Compound 121, Bis(3-Chlorophenyl)borinic acid 4-(hydroxyethyl)imidazole ester] | 32
O=C(O)c1ncccc1O [Compound 116, 3-hydroxypicolinic acid] | 4

The compounds below were run on H. influenzae ATCC 49766 (assay: MIC determination, H. influenzae ATCC 49766). Details: Table 2.
Type: cell-based, Haemophilus influenzae

SMILES | MIC H. influenzae ATCC 49766 [micrograms per ml]
CC1(C)O[B-](c2ccc(Cl)cc2)(c2ccc(Cl)cc2)[n+]2cccc(O)c21 [Compound 103] | 64
O=C(O)c1ncccc1O [Compound 117, 3-hydroxypicolinic acid] | 16
O=C(O)c1ncccc1O [Compound 114, 3-hydroxypicolinic acid] | 16
O=C(O)c1ncccc1O [Compound 115, 3-hydroxypicolinic acid] | 64
Cc1cc(Cl)ccc1B(OC(=O)c1ncccc1O)c1ccc(Cl)cc1C [Compound 118, bis(2-methyl-4-chlorophenyl)borinic acid 3-hydroxypicolinate ester] | 16
CC1(C)O[B-](c2cccc(Cl)c2)(c2cccc(Cl)c2)[n+]2cccc(O)c21 [Compound 102] | 64
Cc1ccc([B-]2(c3ccc(C)c(Cl)c3)OC(=O)c3c(OCCCC(=O)O)ccc[n+]32)cc1Cl [Compound 109] | 16
O=C(O)c1ncccc1O [Compound 112, 3-hydroxypicolinic acid] | 64
Clc1cccc(B(OCCc2c[nH]cn2)c2cccc(Cl)c2)c1 [Compound 121, Bis(3-Chlorophenyl)borinic acid 4-(hydroxyethyl)imidazole ester] | 4
O=C(O)c1ncccc1O [Compound 116, 3-hydroxypicolinic acid] | 64
